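Step 1: Grow cells in 96-well plates. Step 2: Expose to compound for 48 hours at 5 concentrations. Step 3: Interpolate endpoints linearly; if unreached, use highest concentration. TGI: concentration producing complete growth inhibition.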
Assays:
Test in all cases: NCI anticancer screen, dose series, 48 h
786-0 renal = system: 786-0 renal
A498 renal = system: A498 renal
A549 NSCLC = system: A549 NSCLC
BT-549 breast = system: BT-549 breast
CAKI-1 renal = system: CAKI-1 renal
CCRF-CEM leukemia = system: CCRF-CEM leukemia
COLO 205 colon = system: COLO 205 colon
EKVX NSCLC = system: EKVX NSCLC
HCC-2998 colon = system: HCC-2998 colon
HCT-116 colon = system: HCT-116 colon
HCT-15 colon = system: HCT-15 colon
HL-60(TB) leukemia = system: HL-60(TB) leukemia
HOP-62 NSCLC = system: HOP-62 NSCLC
HOP-92 NSCLC = system: HOP-92 NSCLC
HS 578T breast = system: HS 578T breast
HT29 colon = system: HT29 colon
IGROV1 ovarian = system: IGROV1 ovarian
K-562 leukemia = system: K-562 leukemia
KM12 colon = system: KM12 colon
LOX IMVI melanoma = system: LOX IMVI melanoma
M14 melanoma = system: M14 melanoma
MALME-3M melanoma = system: MALME-3M melanoma
MCF7 breast = system: MCF7 breast
MDA-MB-231 breast = system: MDA-MB-231 breast
MDA-MB-435 = system: MDA-MB-435
MDA-N = system: MDA-N
MOLT-4 leukemia = system: MOLT-4 leukemia
NCI-H23 lung = system: NCI-H23 lung
NCI-H460 lung = system: NCI-H460 lung
NCI/ADR-RES ovarian = system: NCI/ADR-RES ovarian
OVCAR-3 ovarian = system: OVCAR-3 ovarian
OVCAR-4 ovarian = system: OVCAR-4 ovarian
OVCAR-5 ovarian = system: OVCAR-5 ovarian
OVCAR-8 ovarian = system: OVCAR-8 ovarian
PC-3 prostate = system: PC-3 prostate
RXF 393 renal = system: RXF 393 renal
SF-268 CNS = system: SF-268 CNS
SF-295 CNS = system: SF-295 CNS
SK-MEL-2 melanoma = system: SK-MEL-2 melanoma
SK-MEL-5 melanoma = system: SK-MEL-5 melanoma
SK-OV-3 ovarian = system: SK-OV-3 ovarian
SN12C renal = system: SN12C renal
SNB-19 CNS = system: SNB-19 CNS
SNB-75 CNS = system: SNB-75 CNS
SW-620 colon = system: SW-620 colon
T-47D breast = system: T-47D breast
TK-10 renal = system: TK-10 renal
U251 CNS = system: U251 CNS
UACC-257 melanoma = system: UACC-257 melanoma
UACC-62 melanoma = system: UACC-62 melanoma
UO-31 renal = system: UO-31 renal

Compound: C/C(=N\Nc1nc2ccccc2[nH]1)c1cnccn1
- TGI (786-0 renal): > 100 µM
- TGI (A498 renal): 7.75 µM
- TGI (A549 NSCLC): > 40.5 µM
- TGI (BT-549 breast): > 85.3 µM
- TGI (CAKI-1 renal): 14.9 µM
- TGI (CCRF-CEM leukemia): 6.75 µM
- TGI (COLO 205 colon): > 40.2 µM
- TGI (EKVX NSCLC): > 34.4 µM
- TGI (HCC-2998 colon): 59.8 µM
- TGI (HCT-116 colon): > 38 µM
- TGI (HCT-15 colon): > 100 µM
- TGI (HL-60(TB) leukemia): 0.429 µM
- TGI (HOP-62 NSCLC): > 100 µM
- TGI (HOP-92 NSCLC): 2.38 µM
- TGI (HS 578T breast): > 100 µM
- TGI (HT29 colon): > 48 µM
- TGI (IGROV1 ovarian): > 38.4 µM
- TGI (K-562 leukemia): > 100 µM
- TGI (KM12 colon): 22.4 µM
- TGI (LOX IMVI melanoma): > 30.5 µM
- TGI (M14 melanoma): 4.66 µM
- TGI (MALME-3M melanoma): > 25.6 µM
- TGI (MCF7 breast): > 66.8 µM
- TGI (MDA-MB-231 breast): > 57.8 µM
- TGI (MDA-MB-435): > 29.6 µM
- TGI (MDA-N): > 100 µM
- TGI (MOLT-4 leukemia): > 100 µM
- TGI (NCI-H23 lung): > 30.7 µM
- TGI (NCI-H460 lung): > 100 µM
- TGI (NCI/ADR-RES ovarian): 21.3 µM
- TGI (OVCAR-3 ovarian): > 100 µM
- TGI (OVCAR-4 ovarian): > 100 µM
- TGI (OVCAR-5 ovarian): > 100 µM
- TGI (OVCAR-8 ovarian): > 93.3 µM
- TGI (PC-3 prostate): > 88.4 µM
- TGI (RXF 393 renal): 4.81 µM
- TGI (SF-268 CNS): > 100 µM
- TGI (SF-295 CNS): > 76.5 µM
- TGI (SK-MEL-2 melanoma): 26 µM
- TGI (SK-MEL-5 melanoma): 13.2 µM
- TGI (SK-OV-3 ovarian): > 100 µM
- TGI (SN12C renal): 12.4 µM
- TGI (SNB-19 CNS): > 100 µM
- TGI (SNB-75 CNS): > 53.9 µM
- TGI (SW-620 colon): > 66 µM
- TGI (T-47D breast): > 68.4 µM
- TGI (TK-10 renal): > 66.5 µM
- TGI (U251 CNS): > 59.5 µM
- TGI (UACC-257 melanoma): > 31 µM
- TGI (UACC-62 melanoma): > 22.3 µM
- TGI (UO-31 renal): > 27.2 µM

Source: PubChem BioAssay (NCI)
